The target in experiment [1] is T1, AChE (Homo sapiens, UniProt P22303).
T1 construct: purchased Sigma Chemical Co., Madrid, Spain
The settings on record: cited from earlier work.

Experiment [2] has as its target T1, AChE. As to the kind of experiment: AChE inhibition in presence of the competitive inhibitor JTE-907 (cooperative activities). Format: biochemical. Further details: key to ΔISC035 (combination minus SC035 alone): difference in % AChE inhibition (combination minus SC035 alone). The settings on record: for Effect of combining with JTE-907 on AChE inhibition: sum of activities with JTE-907. The procedure: (§1) The method was adapted from Ellman et al.[47] The assay solution consisted of 0.1 M phosphate buffer pH 8, […] 5,5′-dithiobis(2-nitrobenzoic acid) (DTNB, Ellman’s reagent), 0.05 unit/ml AChE (Sigma Chemical Co., Madrid, Spain, Cholinesterase, acetyl human recombinant), and […] acetylthiocholine iodide as the substrate of the enzymatic reaction. The compounds tested were added to the assay solution and the absorbance changes at 412 nm were recorded for 5 min with a UV/Vis Microplate and cuvette Spectrophotometer, Thermo Electron Type, Multiskan Spectrum. The reaction rates were compared, and the per cent inhibition due to the presence of test compounds was calculated. […] All the experiments were performed in triplicate.
Clearly, both compounds bind to AChE at an allosteric site. […] If our hypothesis is right, the binding of VP2.33 and SC035 to the allosteric site 3 in presence of JTE-907 should show a cooperative behaviour in terms of inhibition of the AChE.

Experiment [3] has as its target T2, AChE (Cholinesterase, acetyl human recombinant) (Homo sapiens, UniProt P22303).
T2 construct: purchased Sigma Chemical Co., Madrid, Spain
As to the kind of experiment: biochemical. Format: biochemical. On the procedure: as §1

Experiment [4] deals with T1, AChE. As to the kind of experiment: Kinetic study of AChE inhibition (Lineweaver-Burk). Format: biochemical. The settings on record: Lineweaver-Burk plots, four substrate and three inhibitor concentrations. On the procedure: To investigate the mechanism of action of the compounds on AChE, a kinetic analysis was performed. The experiments were carried out using combinations of four substrate concentrations, and three inhibitor concentrations. Double-reciprocal Lineweaver–Burk plotting of the data obtained, in which each point is mean of three different experiments, were analysed.
Mixed inhibitors cause intersects above or below the x-axis.

[5] abbreviates: Table S1 first grid, JTE907 2.5 μM + SC035 25 μM.
Setting [6] is: Table S1 first grid, JTE907 5 μM + SC035 50 μM.
The mark [7] stands for this setting: Table S1 first grid, JTE907 20 μM + SC035 25 μM.
[8] abbreviates: Table S1 first grid, JTE907 20 μM + SC035 50 μM.
[9] abbreviates: Table S1 second grid, SC035 25 μM + JTE907 5 μM.
The mark [10] stands for this setting: Table S1 second grid, SC035 50 μM + JTE907 2.5 μM.
Where [11] appears, read: Table S1 second grid, SC035 50 μM + JTE907 5 μM.
The mark [12] stands for this setting: Table S1 second grid, SC035 70 μM + JTE907 2.5 μM.
[13] abbreviates: Table S1 second grid, SC035 70 μM + JTE907 5 μM.
The mark [14] stands for this setting: compound alone, read-out: Individual inhibition of AChE.
Where [15] appears, read: Table 4, compounds selected to bind site 3, read-out: IC50.

The structures appear in SMILES notation. Where two headings read alike, the source gives them in different places. Where only a bound is given, the exact number is not on record here.

T2 sequence (P22303 32-614): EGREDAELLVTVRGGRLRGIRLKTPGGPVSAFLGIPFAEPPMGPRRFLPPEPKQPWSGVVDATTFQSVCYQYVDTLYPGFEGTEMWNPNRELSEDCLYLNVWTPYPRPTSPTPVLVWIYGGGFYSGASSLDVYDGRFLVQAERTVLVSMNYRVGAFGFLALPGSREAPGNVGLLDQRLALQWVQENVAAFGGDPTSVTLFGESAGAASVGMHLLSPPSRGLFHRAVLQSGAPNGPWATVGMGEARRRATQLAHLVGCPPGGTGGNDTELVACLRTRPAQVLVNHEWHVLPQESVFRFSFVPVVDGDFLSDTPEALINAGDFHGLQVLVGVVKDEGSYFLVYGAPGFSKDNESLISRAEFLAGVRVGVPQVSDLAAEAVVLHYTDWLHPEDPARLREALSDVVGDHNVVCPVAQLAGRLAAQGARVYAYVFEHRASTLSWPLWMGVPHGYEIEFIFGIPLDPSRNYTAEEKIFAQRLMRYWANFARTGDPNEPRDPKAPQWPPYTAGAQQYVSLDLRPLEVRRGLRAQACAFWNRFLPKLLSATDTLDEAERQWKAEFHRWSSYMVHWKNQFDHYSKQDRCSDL
T1 sequence (P22303 32-614): as above

For the compound `CCCCCOc1c(OC)ccc2cc(C(=O)NCc3ccc4c(c3)OCO4)c(=O)[nH]c12` [JTE907, reference compound], on AChE [1], the “Mechanism of AChE inhibition” value is listed as “pure competitive inhibitor”. Moreover, the “ΔIJTE907 (combination minus JTE907 alone)” value on AChE [2] (JTE907 5 μM + VP2.33 25 μM) is recorded as “ΔIJTE907 = 19.86”; on AChE [2] (JTE907 5 μM + VP2.33 50 μM), “ΔIJTE907 = 44.53”; on AChE [2] (JTE907 10 μM + VP2.33 25 μM), “ΔIJTE907 = 11.79”; at AChE [2] (JTE907 20 μM + VP2.33 25 μM), “ΔIJTE907 = 15.66”; at AChE [2] (JTE907 20 μM + VP2.33 50 μM), “ΔIJTE907 = 24.96”; on AChE [2] (setting [5]), 21,5. Moreover, the “ΔIJTE907 (combination minus JTE907 alone)” value at AChE [2] (Table S1 first grid, JTE907 2.5 μM + SC035 50 μM) is reported as 33; on AChE [2] (setting [6]), 19,52; on AChE [2] (setting [7]), -3,46; on AChE [2] (setting [8]), -3,34; on AChE [2] (Table S1 second grid, SC035 25 μM + JTE907 2.5 μM), 18,41; on AChE [2] (setting [9]), 13,78. Further, the “ΔIJTE907 (combination minus JTE907 alone)” value is 33,91 at AChE [2] (setting [10]), 17,2 on AChE [2] (setting [11]), 48,02 at AChE [2] (setting [12]) and 20,33 on AChE [2] (setting [13]). Besides, the “Individual inhibition of AChE” value was 14,09±2,85% on AChE [2] (compound alone, 2.5 μM); 34,22±1,13% and JTE907 5μM (30.34 ± 2.85%) on AChE [2] (compound alone, 5 μM); “JTE907 10 μM (56.78 ± 1.35%)” on AChE [2] (compound alone, 10 μM); 65,78±2,37% and JTE907 20 μM (65.10 ± 2.37%) at AChE [2] (compound alone, 20 μM).

For orientation: IC50 means the midpoint of a concentration-inhibition curve. One may read the inhibition as the drop in the measured response relative to a control, in per cent. Regarding `O=C(/C=C/c1ccc(O)c(O)c1)O[C@H](Cc1ccc(O)c(O)c1)C(=O)O` [Rosmarinic acid, reference compound], in experiment [3] (IC50 (μM), Table 3, compounds selected to bind site 2), the IC50 is more than 10 µM. For the same compound, in experiment [3] (read-out: % of inhibition at 10 μM), the inhibition at 10 µM amounted to 26%.

`O=C(CN1CCCC1)NN1c2ccccc2Sc2ccc(Cl)cc21` [SC035]: the “ΔISC035 (combination minus SC035 alone)” value at AChE [2] (setting [5]) is recorded as -6,74; on AChE [2] (Table S1 first grid, JTE907 5 μM + SC035 25 μM), 2,26; on AChE [2] (setting [6]) it was -4,98; on AChE [2] (setting [7]), 19,99; on AChE [2] (setting [8]) it was 3,72; at AChE [2] (setting [9]), 5,67. In addition, the “ΔISC035 (combination minus SC035 alone)” value on AChE [2] (setting [10]) is on record as -10,72; on AChE [2] (setting [11]) it was -7,3; on AChE [2] (setting [12]), -13,21; at AChE [2] (setting [13]), -20,77. Also, at AChE [2] (setting [14]), the inhibition at 25 µM turned out to be 42.3%. Besides, the inhibition at 50 µM on AChE [2] (setting [14]) was determined as 58.7%. For the same compound, the inhibition at 70 µM on AChE [2] (compound alone, 70 μM, read-out: Individual inhibition of AChE) was 75.3%. In addition, the “Effect of combining with JTE-907 on AChE inhibition” value on AChE [2] is “no addition of activities”. For the same compound, in experiment [3] (setting [15]), the half-maximal inhibitory concentration (IC50) stood at 42.1 ± 4.3 µM. Further, on AChE [4], the “Mechanism of inhibition versus substrate ACh” value was “non-competitive inhibition”.

As to `NC1=NC(=O)C2N=C(c3ccccc3)C(c3ccccc3)=NC2=N1` (stereo not drawn) [SC251], the IC50 in experiment [3] (Table 3, compounds selected to bind site 2, read-out: IC50) stood at 2.76 ± 0.25 µM. Also, the “Mechanism of inhibition versus substrate ACh” value at AChE [4] is “non-competitive-mixed”.

With `OCCNc1nc(-c2cccc3ccccc23)[n+](-c2ccccc2)s1` [VP2.33], the “ΔIVP2.33 (combination minus VP2.33 alone)” value is “ΔIVP2.33 = 17.16” on AChE [2] (JTE907 5 μM + VP2.33 50 μM); “ΔIVP2.33 = 41.29” at AChE [2] (JTE907 10 μM + VP2.33 25 μM); “ΔIVP2.33 = 27.71” at AChE [2] (JTE907 10 μM + VP2.33 50 μM); “ΔIVP2.33 = 53.48” at AChE [2] (JTE907 20 μM + VP2.33 25 μM); “ΔIVP2.33 = 32.35” on AChE [2] (JTE907 20 μM + VP2.33 50 μM). The inhibition at 25 µM on AChE [2] (setting [14]) was found to be 27.3%. Moreover, the inhibition at 50 µM on AChE [2] (setting [14]) amounted to 57.7%. In addition, at AChE [2], the “Effect of combining with JTE-907 on AChE inhibition” value is reported as “an effect of cooperative activities”. Moreover, the half-maximal inhibitory concentration (IC50) in experiment [3] (setting [15]) was 49.6 ± 1.5 µM. Besides, the “Mechanism of inhibition versus substrate ACh” value on AChE [4] is given as “non-competitive inhibition”.

The values above are taken from paper PMC6010107, “Identification of new allosteric sites and modulators of AChE through computational and experimental tools” (Journal of Enzyme Inhibition and Medicinal Chemistry, 2018).
